Assay results published in patent US20130079353A1, “FLUOROQUINOLONES FOR THE TREATMENT AND/OR PROPHYLAXIS OF INFLAMMATORY DISEASES” (priority 2009, published 2013).

Legend:
[1] = test system: mitochondrial respiratory complex I (NADH-quinone oxidoreductase); experiment: Activity of mitochondrial respiratory complex I in treated T-cells, real-time spectrophotometry; format: cell-based, human; details: PHA-pre-activated T-cells treated 7 days; 15 min, 20° C.; normalized to total protein content; three donors
Experimental: Activities of the respiratory chain single enzyme complexes I and II, as well as of citrate synthase, were measured as described previously with minor modifications. Ciprofloxacin-treated cells were depleted of dead cells via Biocoll (Biochrom) gradient centrifugation. The cell number in different batches of ciprofloxacin-treated cells was equalized. For measurement of the enzymatic activities, samples were prepared as described previously with minor modifications. 4×10^7 cells were washed with PBS, shock-frozen in liquid nitrogen and thawed on ice. […] For a single data point the activity measurement was performed three times in triplicates and the average value was calculated. Steady state activity was recorded in a 96-well plate spectrophotometer using a thermostated chamber and a final volume of 300 μl. Enzymatic activities of complex I and complex II were recorded as NADH oxidation at 340-400 nm and as succinate oxidation at 610-750 nm, respectively. Citrate synthase activity was detected after two additional freeze/thaw cycles as 5,5′-dithiobis-(2-nitrobenzoic acid) (DTNB) reduction at 412 nm.
PHA-pre-activated and treated T-cells (see Example 2.1) were shock-frozen in liquid nitrogen. Next, activity of mitochondrial respiratory complex I (NADH-quinone oxidoreductase) was measured by real-time spectrophotometry. […]

[2] = test system: complex II (succinate dehydrogenase); experiment: Activity of complex II in treated T-cells; format: cell-based; details: prolonged, long-term treatment of pre-activated human T-cells
Experimental: (§1) Activities of the respiratory chain single enzyme complexes I and II, as well as of citrate synthase, were measured as described previously with minor modifications. Ciprofloxacin-treated cells were depleted of dead cells via Biocoll (Biochrom) gradient centrifugation. The cell number in different batches of ciprofloxacin-treated cells was equalized. For measurement of the enzymatic activities, samples were prepared as described previously with minor modifications. 4×10^7 cells were washed with PBS, shock-frozen in liquid nitrogen and thawed on ice. Next, cells were permeabilized by 15 min incubation with 1 ml of 0.015% digitonin (w/v) in respiratory chain (RC) buffer (250 mM sucrose, 50 mM KCl, 5 mM MgCl2, 20 mM Tris-HCl, pH 7.4), washed with RC buffer and centrifuged at 8 000 rpm for 5 min at 4° C. For a single data point the activity measurement was performed three times in triplicates and the average value was calculated. Steady state activity was recorded in a 96-well plate spectrophotometer using a thermostated chamber and a final volume of 300 μl. Enzymatic activities of complex I and complex II were recorded as NADH oxidation at 340-400 nm and as succinate oxidation at 610-750 nm, respectively. Citrate synthase activity was detected after two additional freeze/thaw cycles as 5,5′-dithiobis-(2-nitrobenzoic acid) (DTNB) reduction at 412 nm.

citrate synthase = experiment: Activity of citrate synthase in treated T-cells; format: cell-based; details: prolonged, long-term treatment of pre-activated human T-cells
Experimental: as §1

[3] = test system: activation-induced ROS generation in pre-activated primary human T-cells; experiment: Activation-induced ROS generation, H2DCF-DA staining and FACS; format: cell-based; details: PHA-pre-activated T-cells, 7 days of Cipro treatment, plate-bound anti-CD3 (30 μg/ml), 1 h after activation
Experimental: Cells were stained with H2DCF-DA (5 μM) for 30 min. Next, cells were then divided and stimulated with either plate-bound anti-CD3 antibody (30 μg/ml) or PMA (10 ng/ml). Treatment was terminated by ice-cold PBS and ROS generation was determined by FACS analysis. If not stated otherwise, ROS generation was quantified as the increase in mean fluorescence intensity (MFI), calculated according to the following formula: increase in
MFI(%)=[(MFIstimulated−MFIunstimulated)/MFIunstimulated]×100 9.
After PHA-pre-activated and 7 days of Cipro treatment, T-cells were stained with redox sensitive fluorescent probe H2DCF-DA (20 min, 37° C.) and subsequently activated via plate-bound agonistic anti-CD3 antibody (30 μg/ml). The level of activation-induced ROS was assessed by FACS measurement 1 h after activation and calculated as percentage increase in MFI (untreated control set to 100%).

IL-2 [4] = experiment: IL-2 gene expression, quantitative real-time SYBRGreen PCR (vs GAPDH); format: cell-based, human
Experimental: (§2) Quantitative real-time-PCR was performed using the Power SYBR Green PCR Master Mix (Applied Biosystems). Gene expression was analyzed using the 7500 Real-Time PCR Systems and Sequence Detection Software version 1.2.2 (Applied Biosystems). IL-2 and IL-4 gene expression levels were normalized using glyceraldehyde-3-phosphat dehydrogenase (GAPDH) expression levels as an endogenous reference.
(§3) The mean induction ratios were calculated.
(§4) Total cellular RNA was isolated and reverse-transcribed. Expression of IL-2 (see FIG. 4A) and IL-4 (see FIG. 4B) was analyzed using quantitative real-time SYBRGreen PCR. IL-2 and IL-4 expression levels were estimated by gene expression ratio between IL-2 or IL-4 gene and GAPDH genes.
Total cellular RNA was isolated and reverse-transcribed. Expression of IL-2 (see FIG. 5A) and IL-4 (see FIG. 5B) was analyzed using quantitative real-time SYBRGreen PCR. IL-2 and IL-4 expression levels were estimated by gene expression ratio between IL-2 or IL-4 gene and GAPDH genes. […]
(§5) Next, the cells were activated via plate-bound anti-CD3 antibody for 1 h and the gene expression levels for IL-4 (sec FIGS. 6A and 13), IL-2 (see FIGS. 6C and D) and CD95L (see FIGS. 6E and F) were assayed. […] A clear inhibition of TCR induced up-regulation of IL-4, IL-2 and CD95L was detected.

IL-4 [5] = experiment: IL-4 gene expression, quantitative real-time SYBRGreen PCR (vs GAPDH); format: cell-based, human
Experimental: as §2, §3, §4
Total cellular RNA was isolated and reverse-transcribed. Expression of IL-2 (see FIG. 5A) and IL-4 (see FIG. 5B) was analyzed using quantitative real-time SYBRGreen PCR. IL-2 and IL-4 expression levels were estimated by gene expression ratio between IL-2 or IL-4 gene and GAPDH genes. Data are shown as fold increase of induction of gene expression, where anti-CD3 activated cells are compared with respective unstimulated controls.
as §5

CD95L = CD95L gene expression, quantitative real-time SYBRGreen PCR (vs GAPDH); format: cell-based, human; details: T-cells from patients with atopic dermatitis, 50 μg/ml for 7 days, anti-CD3 for 1 h
Experimental: as §2, §5

IL-4 [6] = experiment: Activation-induced IL-4 secretion, ELISA; format: cell-based, human; details: 50 μg/ml for 7 days, anti-CD3 (30 μg/ml) and anti-CD28 (1 μg/ml) for 16 h
Experimental: IL-2 and IL-4 concentrations were measured by enzyme-linked immunosorbent (ELISA) assay (BD OptEIA Set Human IL-2/IL-4, Becton Dickinson). Resting peripheral human T-cells (“day 0” T-cells)+/−rotenone (10 μg/ml, 15 min pre-treatment) were stimulated with plate-bound anti-CD3 monoclonal antibody (30 μg/ml) and soluble anti-CD28 monoclonal antibody (1 μg/ml) for 4 h. Next, the supernatants were cleared by centrifugation and the measurements were performed according to the manufacturer's instructions.
Human peripheral blood T-cells from healthy donors or patients with atopic dermatitis were pre-activated by PHA treatment and subsequently cultured for 7 days in presence or absence of 50 μg/ml cipro. Next, T-cells were activated via plate-bound anti-CD3 antibody (30 μg/ml) and soluble anti-CD28 antibody (1 μg/ml) for 16 h. Supernatants were harvested and secreted amounts of IL-4 were measured by ELISA. […] Therefore, inhibition of IL-4 transcription is not compensated by translational or post translational mechanisms.

[7] = test system: PHA-activated human T-cells; details: short-term (up to 96 hours) or simultaneous treatment; cited from earlier work
IL-2 [8] = details: short-term (up to 96 hours) or simultaneous treatment, PHA-activated human T-cells; cited from earlier work
[9] = PHA-pre-activated primary human T-cells, different amounts of ciprofloxacin for 7 days, not restimulated
[10] = T-cells from patients with atopic dermatitis, 50 μg/ml for 7 days, anti-CD3 for 1 h

Question: What does the source list for `O=C(O)c1cn(C2CC2)c2cc(N3CCNCC3)c(F)cc2c1=O` [ciprofloxacin, 1-cyclopropyl-6-fluoro-1,4-dihydro-4-oxo-7-(1-piperazinyl)-3-quinoline-carboxylic acid]?
Answer: activity of mitochondrial respiratory complex I [1]: impaired activity; activity of complex II (succinate dehydrogenase) [2]: unaffected; activity of citrate synthase (citrate synthase): unaffected; activation-induced ROS generation [3]: blocks; basal IL-2 expression (IL-2 [4]; [9]): increases basal IL-2 and IL-4 expression slightly; anti-CD3-induced increase in IL-2 transcripts levels (IL-2 [4]; [10]): clearly blocked; basal IL-4 levels, treated PHA-pre-activated T cells vs "day 0" T cells (IL-4 [5]; 5 healthy donors, 50 μg/ml for 7 days, P<0.05 (0.03125)): significant down-regulation; basal IL-4 levels, treated PHA-pre-activated T cells vs "day 0" T cells (IL-4 [5]; 7 patients with atopic dermatitis, 50 μg/ml for 7 days, P<0.01 (0.00781)): significant down-regulation; basal IL-4 expression (IL-4 [5]; [9]): increases basal IL-2 and IL-4 expression slightly; anti-CD3-induced increase in IL-4 transcripts levels (IL-4 [5]; [10]): clearly blocked; anti-CD3-induced increase in CD95L transcripts levels (CD95L): clearly blocked; CD3/CD28 triggering-induced IL-4 secretion (IL-4 [6]; T-cells from healthy donors): blocked; CD3/CD28 triggering-induced IL-4 secretion (IL-4 [6]; T-cells from patients with atopic dermatitis): blocked; proliferation of PHA-activated human T-cells [7]: enhanced; IL-2 secretion (IL-2 [8]): enhanced
